Reference: US20150111933A1, “Deuterated Thiazolidinone Analogues as Agonists for Follicle Stimulating Hormone Receptor” (Merck Patent GmbH, priority 2012, published 2015)

Molecular target: T1, FSHR (Homo sapiens, UniProt P23945)
T1 construct: expressed in transfected cells; host or cells: CHO (Cho-FSHR-LUC-1-1-43)
T1 sequence (P23945 18-695): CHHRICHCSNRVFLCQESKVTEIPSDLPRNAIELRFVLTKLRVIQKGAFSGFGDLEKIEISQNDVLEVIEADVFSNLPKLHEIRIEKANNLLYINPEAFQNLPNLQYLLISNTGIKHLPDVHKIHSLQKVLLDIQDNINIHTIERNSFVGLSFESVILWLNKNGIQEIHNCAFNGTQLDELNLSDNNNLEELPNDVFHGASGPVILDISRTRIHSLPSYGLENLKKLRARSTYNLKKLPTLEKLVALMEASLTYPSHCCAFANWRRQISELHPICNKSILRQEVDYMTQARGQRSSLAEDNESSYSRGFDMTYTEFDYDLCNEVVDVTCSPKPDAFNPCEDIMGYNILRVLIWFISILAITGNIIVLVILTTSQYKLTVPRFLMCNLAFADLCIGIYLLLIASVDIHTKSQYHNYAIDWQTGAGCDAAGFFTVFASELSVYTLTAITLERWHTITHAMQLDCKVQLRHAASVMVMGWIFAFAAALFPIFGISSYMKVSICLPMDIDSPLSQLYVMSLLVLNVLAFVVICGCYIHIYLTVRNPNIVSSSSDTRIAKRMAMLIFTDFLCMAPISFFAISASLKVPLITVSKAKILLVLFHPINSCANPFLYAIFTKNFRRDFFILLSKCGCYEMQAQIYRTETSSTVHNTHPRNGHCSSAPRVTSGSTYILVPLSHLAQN
Experiment: EC50 of cyclic AMP production in CHO FSHR cells + EC20 FSH (HTRF)
Assay type: cell-based
Conditions: Cho-FSHR-LUC-1-1-43 cells; for Emax: 1 h, read-out: EC50 of cAMP production (% effect); for EC50: + EC20 FSH (0.265 pM), 200 μM IBMX, 1 h at 37° C., read-out: EC50 of cAMP production
Description: EC50 of Cyclic AMP Production in CHO FSHR Cells+EC20 FSH
2500 Cho-FSHR-LUC-1-1-43 cells were plated per well in 5 μL of phenol red free DMEM/F12+1% FBS. Cells were plated in 384 well, solid white low volume plates (Greiner 784075) by Multidrop. Cells were assayed by adding […] of 2×EC20 FSH/IBMX in DMEM/F12+0.1% BSA) by Multidrop to 2 μL of test compound stamped in 384 well plates (compounds are diluted 1:50). The final FSH concentration was 0.265 pM, and the final IBMX concentration was 200 μM. The compound plate map was as follows: Column 1: 2 μL of DMSO; Column 2: 2 μL of DMSO; Columns 3-12 and 13-24: 2 μL of test compound, diluted 1:4 in 100% DMSO, or 2 μL of FSH, diluted 1:4 in DMEM/F12+0.1% BSA. The starting concentration for FSH was 50 nM (final concentration was 0.5 nM). Furthermore, Column 23 contained 2 μL of EC100 FSH reference (100×) (diluted in DMEM/F12+0.1% BSA) at a final concentration of 0.5 nM, and Column 24 contained 2 μL of 1 mM AS707664/2 reference compound 2. 5 μL of compound+EC20 FSH mixture were transferred to cell plates (1:2 dilution into 5 μL of cell media) The plates were incubated at 37° C. for 1 h. 10 μL of mixed HTRF (CisBio #62AM4PEC) reagents were added per well and incubated at room temperature for 1 h. The plates were read on Envision using the cAMP HTRF—low volume 384 well protocol. The readout was the calculated fluorescence ratio (665 nm/620 nm).

[1] = + EC20 FSH, % effect in brackets

Compound | Emax [1] [%] | EC50 [nM] | EC50 of cAMP production (% effect) [1]
[2H]c1c([2H])c([2H])c(C#Cc2ccc([C@@H]3S[C@H](CC(=O)NC([2H])([2H])C([2H])([2H])c4ccc(OC([2H])([2H])[2H])c(OC)c4)C(=O)N3c3cccc(C(N)=O)c3)cc2)c([2H])c1[2H] [Compound 13, 3-((2S,5R)-4-oxo-5-(2-oxo-2-((1,1,2,2-d4-2-(3-ethoxy-4-methox-d3-yphenyl)ethyl)amino)ethyl)-2-(4-((phenyl-d5)ethynyl)phenyl)thiazolidin-3-yl)benzamide] | 97 | 1.3 | 
[2H]c1c([2H])c([C@@H]2S[C@H](CC(=O)NC([2H])([2H])C([2H])([2H])c3ccc(OC([2H])([2H])[2H])c(OCC)c3)C(=O)N2c2cccc(C(N)=O)c2)c([2H])c([2H])c1C#Cc1ccccc1 (single isomer, unassigned) [Compound 16] | 100 | 0.7 | 
[2H]c1c([2H])c([C@@H]2S[C@H](CC(=O)NC([2H])([2H])C([2H])([2H])c3ccc(OC([2H])([2H])[2H])c(OC([2H])([2H])[2H])c3)C(=O)N2c2cccc(C(N)=O)c2)c([2H])c([2H])c1C#Cc1ccccc1 [Compound 17, 3-((2S,5R)-4-oxo-5-(2-oxo-2-((1,1,2,2-d4-2-(3,4-dimethoxy-d6-phenyl)ethyl)amino)ethyl)-2-(2,3,5,6-d4-4-(phenylethynyl)phenyl-d5)thiazolidin-3-yl)benzamide] | 100 | 0.9 | 
[2H]c1c([2H])c([2H])c(C#Cc2ccc([C@@H]3S[C@H](CC(=O)NC([2H])([2H])C([2H])([2H])c4ccc(O)c(OC)c4)C(=O)N3c3cccc(C(N)=O)c3)cc2)c([2H])c1[2H] (single isomer, unassigned) [Compound 11] | 99 | 335 | 
3-((2S,5R)-4-oxo-5-(2-oxo-2-((1,1,2,2-d4-2-(3-ethoxy-4-methoxy-d3-phenyl)ethyl)amino)ethyl)-2-(2,3,5,6-d4-4-(phenylethynyl)phenyl)thiazolidin-3-yl)benzamide [Compound 15] |  | 0.6 | (99) %
[2H]c1c([2H])c([2H])c(C#Cc2ccc([C@@H]3S[C@H](CC(=O)NCCc4ccc(O)c(O)c4)C(=O)N3c3cccc(C(N)=O)c3)cc2)c([2H])c1[2H] [Compound 12, 3-((2S,5R)-5-(2-((3,4-dihydroxyphenethyl)amino)-2-oxoethyl)-4-oxo-2-(4-((2,3,4,5,6-phenyl-d5)ethynyl)phenyl)thiazolidin-3-yl)benzamide] | 99 | 220 | 
